Columns and labels:
[1] = in vitro; conditions: human, microsomes, pH 7.4
Description: The assay was performed in duplicate.
Supernatant (200 μL) from each reaction tube was taken for LC-MS/MS analysis.

[2] = tested on: CACO-2 cell line; conditions: standard compounds at 5 μM; apical to basolateral
[3] = tested on: MCF7 tumor; experiment: Anticancer efficacy of compound 121 in nude mice bearing MCF7 tumor; assay type: in vivo; conditions: 1 mg/mouse (~33.3 mg/kg) subcutaneously; MCF-7 xenograft mice
Description: For this purpose, MCF7 cancer cells were procured from ATCC and grown in DMEM Medium supplemented with 10% FBS and 1% penicillin streptomycin. Cells were harvested when they reach 70-80% confluence for tumor implantation. 24 h prior to MCF7 cells implantation, the skin area around the injection site of nude mice were disinfected by mildly swabbing with surgical spirit. […] pellet (0.18 mg/pellet 60-day release, Innovative Research of America) was subcutaneously implanted into in the left flank region of the animals. For cell inoculation, cells were mixed with equal volume of Matrigel in a 1:1 ratio followed by injection of 5×10^6 MCF7 cells subcutaneously on the right flank region using a 1 mL syringe attached to a 24 G needle. On the subsequent days the injection site was monitored for tumor palpability. Tumor grafts were measured within 7-8 days of cell inoculation for tumor palpability. […]
After randomization, treatment was initiated when the average tumor volume reaches −200±50 mm^3. Tumor volume and mouse body weight were measured on the first day of treatment (Day 1) and then three times per week till 28 days as shown in FIG. 4. […]
Tumor volume (mm^3) was calculated using the formula, tumor length×(tumor width)2/2. Tumor growth inhibition will be calculated after normalizing the values to that on day 1. % TGI was calculated based on the formula below.

[4] = Pharmacokinetic study in monkey, single oral dose; assay type: in vivo; conditions: 50 mg/kg single oral; Cynomolgus monkey; plasma
Description: The objective of the study was to evaluate pharmacokinetic exposure of compound 121 after per oral dosing at 25 mg/kg dose and Fulvestrant after per oral dosing at 50 mg/kg dose in Cynomolgus monkey. The study was performed in overnight fasted Cynomolgus monkeys.
Blood samples were collected at each time points like 0 h (pre-dose) and 0.25, 0.5, 1, 2, 4, 8, 12, 24, 36 and 48 h post-dose via the cephalic or saphenous veins into polyethylene microcentrifuge tubes containing potassium (K2) EDTA. There were total 11 time points, n=1 monkey. All blood samples were mixed well by inversion and placed on wet ice until processed for plasma. Blood samples were centrifuged at 2˜8° C. for 10 min at 3000 g to collect plasma. Plasma samples of approximately […] at each time point were used for the bioanalysis. The plasma samples were stored frozen in a freezer set to maintain −60° C. to −70° C. until LC/MS/MS analysis.
Bioanalysis was performed using fit-for-purpose LC-MS/MS method for the quantification of compound 121 or Fulvestrant in plasma samples. The calibration curve was prepared in stabilized blank monkey plasma over 1-1000 ng/mL range for compound 121 and 1-3000 ng/mL range for Fulvestrant. Samples were cleaned up using the protein precipitation technique and analysed by LC-MS/MS.
The plasma pharmacokinetic parameters were calculated using standard non-compartmental analysis (using linear trapezoidal method with linear interpolation.)

[5] = in vitro; conditions: human, Caco-2

For `CC(=O)N1CCN(c2ccc(OCC3COC(Cn4ccnc4)(c4ccc(Cl)cc4Cl)O3)cc2)CC1` (stereo not drawn) [Ketoconazole], which half-life [1] is on record?
The half-life was over 120 min.

Which A-B permeability [2] does the source give for `CC(C)NCC(O)COc1cccc2ccccc12` (stereo not drawn) [Propranolol] here?
Its A-B permeability is 6.215e-05 cm/s.

Which results are given for `C[C@]12CC[C@@H]3c4ccc(O)cc4C[C@@H](CCCCCCCCC[S+]([O-])CCCC(F)(F)C(F)(F)F)[C@H]3[C@@H]1CC[C@@H]2O` (stereo partly drawn) [Fulvestrant]?
% Tumor Growth Inhibition (% TGI) on day 28 [3]: 101%; AUC % Extrap [4]: Inestimable; AUC_0-t [4]: Inestimable; AUC_0-∞ [4]: Inestimable; Cmax [4]: Inestimable; Tmax [4]: Inestimable

Which efflux ratio at 5 μM [5] does the source give for `C[C@H]1O[C@@H](O[C@H]2[C@@H](O)C[C@H](O[C@H]3[C@@H](O)C[C@H](O[C@H]4CC[C@@]5(C)[C@H](CC[C@@H]6[C@@H]5C[C@@H](O)[C@]5(C)[C@@H](C7=CC(=O)OC7)CC[C@]65O)C4)O[C@@H]3C)O[C@@H]2C)C[C@H](O)[C@@H]1O` [Digoxin] here?
Its efflux ratio at 5 μM is 19.7.

Reference: US20250268919A1, “COMPOUNDS FOR THE TREATMENT OF CANCER” (Amneal Pharmaceuticals LLC, priority 2021, published 2025)
